Patent US6440903B1, “Substituted 2,4-diamino-1,3,5-triazines as herbicides” (Bayer Aktiengesellschaft, priority 1996, dated 2002)

How the values were obtained:
Format in all cases: in vivo
Setaria [1] = assay: Post-emergence test; settings: greenhouse, scored after three weeks; for pest or weed control at 1000 g/ha: Setaria, 504 h, read-out: % damage, Setaria
Summary of the method: (§1)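 Compound formulated in acetone (5 parts) with alkylaryl polyglycol ether emulsifier (1 part) per part active, diluted with water. Plants 5-15 cm tall sprayed at desired rates in 1000 l water/ha. Damage scored visually after three weeks as % versus untreated control (0% no effect, 100% total destruction).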

Maize [2] = assay: Post-emergence test; settings: greenhouse, scored after three weeks
Summary of the method: as §1

Amaranthus [3] = assay: Post-emergence test; settings: greenhouse, scored after three weeks; for pest or weed control at 1000 g/ha: Amaranthus, 504 h, read-out: % damage, Amaranthus
Summary of the method: as §1

Xanthium = assay: Post-emergence test; settings: greenhouse, 1000 g of ai./ha, scored after three weeks
Summary of the method: as §1

Abutilon [4] = assay: Post-emergence test; settings: greenhouse, 1000 g of ai./ha, scored after three weeks
Summary of the method: as §1

Viola = assay: Post-emergence test; settings: greenhouse, scored after three weeks
Summary of the method: as §1

Chenopodium = assay: Post-emergence test; settings: greenhouse, scored after three weeks
Summary of the method: as §1

Stellaria = assay: Post-emergence test; settings: greenhouse, 250 g of ai./ha, scored after three weeks
Summary of the method: as §1

Wheat [5] = assay: Post-emergence test; settings: greenhouse, scored after three weeks
Summary of the method: as §1

Alopecurus [6] = assay: Post-emergence test; settings: greenhouse, 1000 g of ai./ha, scored after three weeks
Summary of the method: as §1

Galium [7] = assay: Post-emergence test; settings: greenhouse, 1000 g of ai./ha, scored after three weeks
Summary of the method: as §1

Avena fatua = assay: Post-emergence test; settings: greenhouse, 1000 g of ai./ha, scored after three weeks
Summary of the method: as §1

Sinapis [8] = assay: Post-emergence test; settings: greenhouse, 1000 g of ai./ha, scored after three weeks
Summary of the method: as §1

Setaria [9] = assay: Pre-emergence test; settings: greenhouse, scored after three weeks
Protocol: (§2) Pre-emergence Test Solvent: 5 parts by weight of acetone Emulsifier: 1 part by weight of alkylaryl polyglycol ether To produce a suitable preparation of active compound, 1 part by weight of active compound is mixed with the stated amount of solvent, the stated amount of emulsifier is added and the concentrate is diluted with water to the desired concentration. Seeds of the test plants are sown in normal soil. After about 24 hours, the soil is watered with the preparation of active compound. The amount of water per unit area is advantageously kept constant. The concentration of active compound in the preparation is immaterial, only the application rate of active compound per unit area matters. After three weeks, the degree of damage to the plants is scored visually in % damage in comparison to the development of the untreated control. The figures denote: 0%=no effect (like untreated control) 100%=total destruction

Echinochloa = assay: Pre-emergence test; settings: greenhouse, 500 g of ai./ha, scored after three weeks
Protocol: as §2

Cotton = assay: Pre-emergence test; settings: greenhouse, 500 g of ai./ha, scored after three weeks
Protocol: as §2

Solanum = assay: Pre-emergence test; settings: greenhouse, 500 g of ai./ha, scored after three weeks
Protocol: as §2

Polygonum [10] = assay: Pre-emergence test; settings: greenhouse, 500 g of ai./ha, scored after three weeks
Protocol: as §2

Veronica = assay: Pre-emergence test; settings: greenhouse, 500 g of ai./ha, scored after three weeks
Protocol: as §2

Wheat [11] = assay: Pre-emergence test; settings: greenhouse, 500 g of ai./ha, scored after three weeks
Protocol: as §2

Datura = assay: Post-emergence test; settings: greenhouse, 125 g of ai./ha, scored after three weeks
Summary of the method: as §1

Digitaria = assay: Post-emergence test; settings: greenhouse, 125 g of ai./ha, scored after three weeks
Summary of the method: as §1

Polygonum [12] = assay: Post-emergence test; settings: greenhouse, 125 g of ai./ha, scored after three weeks
Summary of the method: as §1

Alopecurus [13] = assay: Pre-emergence test; settings: greenhouse, 1000 g of ai./ha, scored after three weeks
Protocol: as §2

Maize [14] = assay: Pre-emergence test; settings: greenhouse, 1000 g of ai./ha, scored after three weeks
Protocol: as §2

Galium [15] = assay: Pre-emergence test; settings: greenhouse, 1000 g of ai./ha, scored after three weeks
Protocol: as §2

Amaranthus [16] = assay: Pre-emergence test; settings: greenhouse, 1000 g of ai./ha, scored after three weeks
Protocol: as §2

Sinapis [17] = assay: Pre-emergence test; settings: greenhouse, 1000 g of ai./ha, scored after three weeks
Protocol: as §2

Abutilon [18] = assay: Pre-emergence test; settings: greenhouse, 1000 g of ai./ha, scored after three weeks
Protocol: as §2

CCC(Nc1nc(NC(C)=O)nc(C(F)(F)F)n1)c1ccc(Cl)cc1 (stereo not shown) [drawing 144]
pest or weed control at 1000 g/ha (Setaria [1]; 1000 g of ai./ha): 100% | % damage, Maize (Maize [2]; 1000 g of ai./ha): 10% | pest or weed control at 1000 g/ha (Amaranthus [3]; 1000 g of ai./ha): 100% | % damage, Xanthium (Xanthium): 90% | % damage, Abutilon (Abutilon [4]): 100%

CCC(Nc1nc(N)nc(C(F)(F)F)n1)c1ccc(Cl)cc1 (stereo not shown) [drawing 142]
% damage, Viola (Viola; 250 g of ai./ha): 100% | % damage, Setaria (Setaria [1]; 250 g of ai./ha): 100% | % damage, Chenopodium (Chenopodium; 250 g of ai./ha): 100% | % damage, Amaranthus (Amaranthus [3]; 250 g of ai./ha): 100% | % damage, Stellaria (Stellaria): 100% | % damage, Wheat (Wheat [5]; 250 g of ai./ha): 10%

COc1ccc(C(C)Nc2nc(NC(C)=O)nc(C(F)(F)F)n2)cc1 (stereo not shown) [drawing 149]
pest or weed control at 1000 g/ha (Setaria [1]; 1000 g of ai./ha): 100% | % damage, Alopecurus (Alopecurus [6]): 100% | % damage, Galium (Galium [7]): 100% | pest or weed control at 1000 g/ha (Amaranthus [3]; 1000 g of ai./ha): 100% | % damage, Xanthium (Xanthium): 100% | % damage, Abutilon (Abutilon [4]): 100%

CC(Nc1nc(N)nc(C(F)(F)F)n1)c1ccc(Cl)cc1 (stereo not shown) [drawing 111]
% damage, Setaria (Setaria [1]; 1000 g of ai./ha): 100% | % damage, Galium (Galium [7]): 100% | % damage, Avena fatua (Avena fatua): 70% | % damage, Amaranthus (Amaranthus [3]; 1000 g of ai./ha): 100% | % damage, Xanthium (Xanthium): 100% | % damage, Sinapis (Sinapis [8]): 100% | % damage, Abutilon (Abutilon [4]): 100%

CC(Cl)c1nc(N)nc(NC(C)c2ccc(Cl)cc2)n1 (stereo not shown) [drawing 100]
% damage, Setaria (Setaria [9]; 500 g of ai./ha): 95% | % damage, Echinochloa (Echinochloa): 100% | % damage, Cotton (Cotton): 0% | % damage, Solanum (Solanum): 100% | % damage, Polygonum (Polygonum [10]): 100% | % damage, Veronica (Veronica): 100% | % damage, Wheat (Wheat [11]): 0%

CC(F)c1nc(N)nc(NC(C)c2ccc(Cl)cc2)n1 (stereo not shown) [drawing 104]
% damage, Viola (Viola; 125 g of ai./ha): 100% | % damage, Setaria (Setaria [1]; 125 g of ai./ha): 90% | % damage, Maize (Maize [2]; 125 g of ai./ha): 10% | % damage, Datura (Datura): 100% | % damage, Digitaria (Digitaria): 80% | % damage, Polygonum (Polygonum [12]): 100% | % damage, Chenopodium (Chenopodium; 125 g of ai./ha): 100% | plant injury at 125 g/ha (Wheat [5]; Triticum aestivum, 504 h, 125 g of ai./ha, read-out: % damage, Wheat): 0%

CC(Nc1nc(N)nc(C(C)(C)F)n1)c1ccc(Cl)cc1 (stereo not shown) [drawing 96]
% damage, Setaria (Setaria [9]; 1000 g of ai./ha): 100% | % damage, Alopecurus (Alopecurus [13]): 100% | % damage, Maize (Maize [14]): 20% | % damage, Galium (Galium [15]): 100% | % damage, Amaranthus (Amaranthus [16]): 100% | % damage, Sinapis (Sinapis [17]): 100% | % damage, Abutilon (Abutilon [18]): 100%
